According to patent US11905268B2, “Anthranilic acid derivatives and their use in the treatment of human cancers” (UNIVERSITY OF CENTRAL FLORIDA RESEARCH FOUNDATION, INC., priority 2018, dated 2024):
Where two headings read alike, the source gives them in different places.

Experiments:
[1] = tested on: L3.6pl cells; assay: cells; type: cell-based; conditions: for IC50: Homo sapiens, L3.6pl
[2] = tested on: L3.6pl cells; assay: DFMO/Spd rescue assay in L3.6pl cells; type: cell-based, human; conditions: Table 9; ECx = y: x% effect at y μM
Procedure: In another example in the DFMO spermidine (Spd) rescue assay an EC38=8 means that the PTI molecule at 8 μM was able to block 38% of the entry of spermidine into DFMO treated L3.6 pl cells after 72 h incubation time at 37° C. Another explanation, is that the PTI was able to disrupt […] of the intracellular trafficking of Spd that leads to cell rescue. […] Since both Ant44 and Spermidine are polyamine-based systems, cells likely use one mode of the polyamine transport (basal or obligate) in each assay.
(§1) The higher EC value denotes the compound is giving a relative % growth of L3.6 pl cells consistent with inhibiting either Ant44 uptake or blocking the uptake of the rescuing dose of spermidine. Alternatively these compounds may disrupting the intracellular trafficking of Ant44 and spermidine so they cannot reach their intended intracellular target.

[3] = tested on: L3.6pl cells; assay: Ant44 assay in L3.6pl cells; type: cell-based, human; conditions: Table 9; Ant44 3 μM; ECx = y: x% effect at y μM
Procedure: For example, in the ANT44 assay an EC48=9 means that the PTI molecule at 9 μM was able to block 48% of the Ant44 entry into L3.6 pl human Pancreatic ductal adenocarcinoma cells after 72 h incubation time at 37° C. Another explanation, is that the PTI was able to disrupt […] of the intracellular trafficking of Ant44 that leads to toxicity. Recall a polyamine transport inhibitor can work at any one (or more than one) of the different steps involved in the multi-step polyamine import and intracellular trafficking process. Blocking the entering spermidine from reaching its intended intracellular target is another way in which these compounds may function.
as §1

[4] = tested on: CHO cells; assay: Cytotoxicity screen in CHO cells; conditions: for IC50 at 48 h: Chinese hamster, CHO K1 cells; for tox (DFMO Assay) / Tox (Ant44): toxic above the stated concentration, CHO cells; for tox (DFMO Assay): listed with DFMO assay; for Tox (Ant44): listed with Ant44 assay
Procedure: CHO K1 cells were grown in growth medium to 70% confluency and washed in PBS and trypsinized. […] Cells were spun at 100×g for 1 minute and incubated at 37° C. in a humidified CO2 incubator for 24 hours. […] Cellular ATP content was then assayed by adding 3 uL of ATPLite with a Beckman BioRAPTR FRD dispenser and incubated for 10 minutes at room temperature. Plates were spun at 200×g for 1 minute and read on a Perkin Elmer Viewlux multimode plate reader using luminescence mode. This assay was used for testing dose-response of dry powders.
CHO K1 cells were grown in growth medium to 70% confluency and washed in PBS and trypsinized. Cells were plated in assay medium at 10000 cells/mL for 200 cells per well using a Thermo Multidrop Combi in 20 uL into a white Greiner plate. Cells were spun at 100×g for 1 minute and incubated at 37° C. in a humidified CO2 incubator for 24 hours. […] This was followed by adding by 10 μL of assay medium to all wells with a Beckman BioRAPTR FRD dispenser. The plates were spun at 200×g for 1 minute and incubated at 37° C. in a humidified 5% CO2 incubator for 48 hours. Cellular ATP content was then assayed by adding 20 μL of ATPLite with a Beckman BioRAPTR FRD dispenser and incubated for 10 min at room temperature. Plates were spun at 200×g for 1 minute and read on a Perkin Elmer Envision for multimode plate reader using luminescence mode. Duplicates were run for each compound concentration, and the curves represent the average of the duplicates as percent viability.
The final compound concentration was either 20 μM or 10 μg/mL (depending upon the compound source). A successful PTI in Assay 1 would block the uptake of the toxic Ant44 probe and rescue the cells back to >90% relative growth vs an untreated control. It was critical to also evaluate the toxicity of the PTI by itself as a toxic PTI would give a false negative in Assay1 (and a false positive in Assay 2). […] Assay 2 then evaluated the ability of the compound to inhibit the uptake of a rescuing dose of Spermidine (Spd, 1 μM) into DFMO-treated CHO cells.

[5] = tested on: CHO cells; assay: Ant44 rescue assay in CHO cells (Assay 1); type: cell-based, Chinese hamster; conditions: Cricetulus griseus; for IC50: CHO, Table 7, read-out: SAR IC50 Ant44 assay; for EC50: Table 1 HTS top hits, CHO cells, read-out: Ant44 EC50
Procedure: CHO K1 cells were grown in growth medium (RPMI+10% FBS+1×P/S+1% l-glutamine) to 70% confluency, washed in PBS and trypsinized. Cells were plated in assay medium (serum free RPMI+2% FBS+1×l-glutamine+1×P/S+[…] aminoguanidine) at 50000 cells/mL for 200 cells per well in 4 ul using a Thermo Multidrop Combi into a 1536-well white Aurora plate.
Ant44 is a cytotoxic polyamine, i.e., N^1-(9-anthracenyl)-homospermidine. A non-toxic PTI compound would block entry or intracellular trafficking of the Ant44 toxin and rescue the cells back to high viability. Therefore, this screen tested for compounds which rescued cells from Ant44 toxicity. […] This was followed by adding 10 uL of 10 uM Ant44 (FAC 2 uM) in assay medium with a Beckman BioRAPTR FRD dispenser or 10 uL of cells added in assay medium (positive control).

[6] = tested on: DFMO treated Chinese hamster ovary (CHO) cells; assay: DFMO/spermidine rescue assay in CHO cells (Assay 2); type: cell-based; conditions: for IC50: Cricetulus griseus
Procedure: In the reconfirmation assay compounds were run in quadruplicate. […] A PTI compound is expected to block the entry or disrupt the intracellular trafficking of spermidine and inhibit the ability of spermidine to rescue the growth or viability of DFMO treated cells.
DFMO/Spermidine assay Here cells were treated with an inhibitor of polyamine biosynthesis (DFMO) and rescued back to high viability by the presence of exogenous polyamine (spermidine). Putative PTI compounds were screened for their ability to block the entry or intracellular trafficking of exogenous spermidine (or otherwise disrupt the intracellular trafficking of spermidine) by measuring cell viability in the presence of DFMO+spermidine+PTI compound. […] This was followed by adding 10 μL of […] and 5 μM spermidine (FAC 5 mM DFMO and 1 μM spermidine) in assay medium with a Beckman BioRAPTR FRD dispenser or 10 μL of 5 mM DFMO added in assay medium (positive control). […] A PTI compound is expected to block the entry or disrupt the intracellular trafficking of spermidine and inhibit the ability of spermidine to rescue the growth or viability of DFMO treated cells Cytotoxicity

[7] = 72 h, Table 9, read-out: 72 h IC50
[8] = CHO, Table 7, read-out: SAR IC50 DFMO assay
[9] = Table 1 HTS top hits, CHO cells, read-out: DFMO Assay IC50

Structure (SMILES)	IC50 [1, 7] [µM]	MTD ([1]; Table 9) [µM]	EC value in DFMO/Spd rescue assay [2]	EC value in Ant44 (3 μM) assay [3]	IC50 at 48 h [4] [µM]	IC50 [5] [µM]	IC50 [6, 8] [µM]	tox (DFMO Assay) [4]	EC50 [5] [µM]	further results
COc1ccc(C(=O)Nc2ccc(N3CCN(c4cc(Cl)ccc4C)CC3)cc2C(=O)O)c(OC)c1 [drawing 135]	> 50	>20	EC15 = 20 μM	inactive	–	–	–	–	–	–
O=C(Nc1ccc(N2CCC(Oc3ccccc3)CC2)cc1C(=O)O)c1cccnc1	> 50	10	EC25 = 8 μM	Not working	–	–	–	–	–	–
O=C(Nc1ccc(N2CCC(Oc3ccccc3)CC2)cc1C(=O)O)c1cc2ccccc2o1	44.4 ± 0.04	10	EC30 =10 μM	EC7 = 10 μM	–	–	–	–	–	–
COc1ccc(C(=O)Nc2ccc(N3CCN(c4cc(Cl)ccc4C)CC3)cc2C(=O)O)cc1 [SBI-0754479, 5-(4-(5-chloro-2-methylphenyl)piperazin-1-yl)-2-(4-methoxybenzamido)benzoic acid]	–	–	–	–	13	> 40	8	–	–	IC50 ([1]; relative growth after 72 h, read-out: L3.6pl IC50): 16.8 ± 0.1 µM; L3.6pl MTC ([1]; maximum tolerated concentration where cells are >90% viable): 8 µM
O=C(Nc1ccc(F)cc1C(=O)O)c1ccco1	> 100	>100	EC67 = 100 μM	EC36 = 50 μM	–	–	–	–	–	–
COc1ccccc1C(=O)Nc1ccc(N2CCN(Cc3ccccc3)CC2)cc1C(=O)O [SBI-0814414, 5-(4-benzylpiperazin-1-yl)-2-(2-methoxybenzamido)benzoic acid]	–	–	–	–	> 40	> 40	> 40	–	–	–
COc1ccc(C(=O)Nc2ccc(N3CCN(c4cc(Cl)ccc4C)CC3)cc2C(=O)O)c(OC)c1 [SBI-0801324, 5-(4-(5-chloro-2-methylphenyl)piperazin-1-yl)-2-(2,4-dimethoxybenzamido)benzoic acid]	–	–	–	–	> 40	> 40	> 40	Non tox	31	DFMO Assay IC40 ([6]; Table 1, CHO cells): 31 µM
COc1ccc(C(=O)Nc2ccc(N3CCN(c4cccc(C)c4C)CC3)cc2C(=O)O)cc1 [SBI-0800686]	–	–	–	–	–	–	–	SBI- 0800686.0001 (IC50 ~5, tox >5) μM	~10	Tox (Ant44) [4]: SBI- 0800686.0001 Tox >10, EC50 near 10 μM; IC50 [6, 9]: ~5 µM
COc1ccccc1C(=O)Nc1ccc(N2CCN(c3cccc(C)c3C)CC2)cc1C(=O)O [SBI-0800676]	–	–	–	–	28	2	23	SBI- 0800676.0001 (IC50 ~15, tox >15) μM	20	Tox (Ant44) [4]: SBI- 0800676.0001 (20 EC50) Tox >20 μM; IC50 [6, 9]: ~15 µM
